Test results: PMC7284870, “Antimicrobial Peptides from Rat-Tailed Maggots of the Drone Fly Eristalis tenax Show Potent Activity against Multidrug-Resistant Gram-Negative Bacteria” (Microorganisms, 2020)
In brackets after ≈: the same amount, converted by molar mass. Where two headings read alike, the source gives them in different places.

Experiments:
Experiment in all cases: MIC, clinical isolates
Type in all cases: cell-based
[1] = system: Acinetobacter pittii clinical isolate (1); details: Table S1, RKI 588/16
Method: (§1) The strains that were used in this study (Table 2 and Table S1) were cultivated at 37 °C in cation-adjusted Mueller–Hinton broth (CAMB) in Erlenmeyer flasks, or on the same medium with agar in Petri dishes. Exceptionally, Mycobacterium smegmatis was cultivated at 37 °C in brain heart infusion (BHI) medium that was supplemented with 1% Tween-80 in Erlenmeyer flasks, or on the same medium lacking detergent but with agar in Petri dishes. Strains listed with Robert Koch Institute (RKI) strain numbers are clinical isolates from the RKI strain collection originating from hospitalized patients in Germany. The remaining strains originated from the Sanofi strain collection and they were originally purchased from the American Type Culture Collection or the German Collection of Microorganisms and Cell Cultures. Meropenem/colistin-resistant strains were maintained, as described above, with the appropriate antibiotic added at levels below the minimal inhibitory concentration (MIC).
(§2) The MIC values were determined in 384-well microtiter plates with an assay volume of 20 µL. Immediately before each assay, the cultures of test organisms (bacteria grown for 18 h, Candida albicans and M. smegmatis grown for 48 h) were diluted with the appropriate medium to a density of 1 × 10^6 cells/mL (C. albicans), 1 × 10^5 cells/mL (M. smegmatis) or 5 × 10^5 cells per mL (other species). […] We transferred 2-µL aliquots from this dilution series to new 384-well microtiter plates while using a CyBio-Well 384-channel automated pipettor (Analytic Jena, Jena, Germany) and added 18 µL of the diluted suspension of each test species using a Viafill reagent dispenser (Integra), thus reducing the final peptide concentration 10-fold to the range 1024–0.03125 µg/mL. […] The growth of M. smegmatis was measured using the BacTiter-Glo luminescence test system (Promega, Madison, WI, USA). The growth of the other species was determined by visual inspection of the microtiter plate and turbidimetry based on the optical density at 600 nm (OD600). The MIC was defined as the peptide concentration at which no bacterial growth was observed. We supplemented the test medium with either 150 mM NaCl or 1.25 mM CaCl2 to represent monovalent and divalent cations to simulate physiological conditions.

[2] = system: Stenotrophomonas maltophilia clinical isolates (2); details: Table S1, RKI 729/15
Method: as §1, §2

[3] = system: Salmonella enterica clinical isolates (10)
Method: as §1, §2

[4] = system: Enterobacter cloacae clinical isolates (23)
Method: as §1, §2

[5] = system: Citrobacter freundii clinical isolate (1); details: Table S1, RKI 604/16
Method: as §1, §2

[6] = system: Escherichia coli clinical isolates (26)
Method: as §1, §2

[7] = system: Acinetobacter baumannii clinical isolates (20)
Method: as §1, §2

[8] = system: Klebsiella pneumoniae clinical isolates (21)
Method: as §1, §2

[9] = system: Enterobacter aerogenes clinical isolate (1); details: Klebsiella aerogenes; Table S1, RKI 1026/14-1
Method: as §1, §2

[10] = system: Klebsiella oxytoca clinical isolates (2); details: Table S1, RKI 609/16
Method: as §1, §2

With `C[C@@H](O)[C@H]1C(=O)N2C(C(=O)O)=C(S[C@@H]3CN[C@H](C(=O)N(C)C)C3)[C@H](C)[C@H]12` [MEM, meropenem] the MIC [1] was no more than 0.5 µg/mL, the MIC [2] was greater than 64 µg/mL and the MIC ([3]; Table S1, RKI 205/14) was no more than 0.5 µg/mL. The MIC ([3]; Table S1, RKI 206/14) was no more than 0.5 µg/mL, the MIC ([3]; Table S1, RKI 270/14) was no more than 0.5 µg/mL and the MIC ([3]; Table S1, RKI 277/14) was no more than 0.5 µg/mL. It also gave an MIC ([3]; Table S1, RKI 419/14) of no more than 0.5 µg/mL, an MIC ([3]; Table S1, RKI 436/14) of no more than 0.5 µg/mL and an MIC ([3]; Table S1, RKI 437/14) of no more than 0.5 µg/mL. The MIC ([3]; Table S1, RKI 532/14-1) was no more than 0.5 µg/mL, the MIC ([3]; Table S1, RKI 533/14) was no more than 0.5 µg/mL and the MIC ([3]; Table S1, RKI 583/14) was no more than 0.5 µg/mL. The MIC ([4]; Table S1, RKI 5/14) was 4 µg/mL (≈ 10.4 µM), the MIC ([4]; Table S1, RKI 33/16) was 8 µg/mL (≈ 20.9 µM) and the MIC ([4]; Table S1, RKI 34/16) was 32 µg/mL (≈ 83.4 µM). For the same compound, the MIC ([4]; Table S1, RKI 37/14) was no more than 0.5 µg/mL, the MIC ([4]; Table S1, RKI 76/15) was no more than 0.5 µg/mL and the MIC ([4]; Table S1, RKI 113/16) was 2 µg/mL (≈ 5.22 µM). For the same compound, the MIC ([4]; Table S1, RKI 136/15) was greater than 64 µg/mL, the MIC ([4]; Table S1, RKI 141/15) was 2 µg/mL (≈ 5.22 µM) and the MIC ([4]; Table S1, RKI 210/15) was no more than 0.5 µg/mL. The MIC ([4]; Table S1, RKI 215/15) was no more than 0.5 µg/mL, the MIC ([4]; Table S1, RKI 243/15) was no more than 0.5 µg/mL and the MIC ([4]; Table S1, RKI 287/13) was 64 µg/mL (≈ 167 µM). The MIC ([4]; Table S1, RKI 308/13) was 8 µg/mL (≈ 20.9 µM), the MIC ([4]; Table S1, RKI 348/15) was 1 µg/mL (≈ 2.61 µM) and the MIC ([4]; Table S1, RKI 361/13) was no more than 0.5 µg/mL. For the same compound, the MIC ([4]; Table S1, RKI 460/16) was 64 µg/mL (≈ 167 µM), the MIC ([4]; Table S1, RKI 466/13) was 16 µg/mL (≈ 41.7 µM) and the MIC ([4]; Table S1, RKI 506/15) was 16 µg/mL (≈ 41.7 µM). It also gave an MIC ([4]; Table S1, RKI 546/13) of no more than 0.5 µg/mL, an MIC ([4]; Table S1, RKI 571/13) of no more than 0.5 µg/mL and an MIC ([4]; Table S1, RKI 733/14) of 64 µg/mL (≈ 167 µM). For the same compound, the MIC ([4]; Table S1, RKI 766/15) was no more than 0.5 µg/mL, the MIC [5] was greater than 64 µg/mL and the MIC ([6]; Table S1, RKI 75/15) was greater than 64 µg/mL. For the same compound, the MIC ([6]; Table S1, RKI 95/15) was no more than 0.5 µg/mL, the MIC ([6]; Table S1, RKI 97/15) was no more than 0.5 µg/mL and the MIC ([6]; Table S1, RKI 314/16) was no more than 0.5 µg/mL. It also gave an MIC ([6]; Table S1, RKI 317/16) of no more than 0.5 µg/mL, an MIC ([6]; Table S1, RKI 330/16) of no more than 0.5 µg/mL and an MIC ([6]; Table S1, RKI 443/16) of 4 µg/mL (≈ 10.4 µM). For the same compound, the MIC ([6]; Table S1, RKI 462/16) was no more than 0.5 µg/mL, the MIC ([6]; Table S1, RKI 513/16) was no more than 0.5 µg/mL and the MIC ([6]; Table S1, RKI 514/16) was no more than 0.5 µg/mL. For the same compound, the MIC ([6]; Table S1, RKI 515/16) was no more than 0.5 µg/mL, the MIC ([6]; Table S1, RKI 521/16) was no more than 0.5 µg/mL and the MIC ([6]; Table S1, RKI 524/16) was no more than 0.5 µg/mL. It also gave an MIC ([6]; Table S1, RKI 525/16) of no more than 0.5 µg/mL, an MIC ([6]; Table S1, RKI 581/16) of no more than 0.5 µg/mL and an MIC ([6]; Table S1, RKI 582/16) of no more than 0.5 µg/mL. It also gave an MIC ([6]; Table S1, RKI 583/16) of no more than 0.5 µg/mL, an MIC ([6]; Table S1, RKI 590/16) of no more than 0.5 µg/mL and an MIC ([6]; Table S1, RKI 592/16) of no more than 0.5 µg/mL. For the same compound, the MIC ([6]; Table S1, RKI 593/16) was no more than 0.5 µg/mL, the MIC ([6]; Table S1, RKI 602/16) was no more than 0.5 µg/mL and the MIC ([6]; Table S1, RKI 607/16) was 8 µg/mL (≈ 20.9 µM). The MIC ([6]; Table S1, RKI 867/14) was 8 µg/mL (≈ 20.9 µM), the MIC ([6]; Table S1, RKI 1023/14) was no more than 0.5 µg/mL and the MIC ([7]; Table S1, RKI 3/15) was 32 µg/mL (≈ 83.4 µM). For the same compound, the MIC ([7]; Table S1, RKI 4/15) was 32 µg/mL (≈ 83.4 µM), the MIC ([7]; Table S1, RKI 11/16) was greater than 64 µg/mL and the MIC ([7]; Table S1, RKI 12/16) was 64 µg/mL (≈ 167 µM). The MIC ([7]; Table S1, RKI 13/16) was greater than 64 µg/mL, the MIC ([7]; Table S1, RKI 14/16) was greater than 64 µg/mL and the MIC ([7]; Table S1, RKI 16/15) was greater than 64 µg/mL. For the same compound, the MIC ([7]; Table S1, RKI 16/16) was greater than 64 µg/mL, the MIC ([7]; Table S1, RKI 30/16) was greater than 64 µg/mL and the MIC ([7]; Table S1, RKI 32/16) was 64 µg/mL (≈ 167 µM). The MIC ([7]; Table S1, RKI 70/16) was greater than 64 µg/mL, the MIC ([7]; Table S1, RKI 230/15) was greater than 64 µg/mL and the MIC ([7]; Table S1, RKI 231/15) was 64 µg/mL (≈ 167 µM). It also gave an MIC ([7]; Table S1, RKI 271/16) greater than 64 µg/mL, an MIC ([7]; Table S1, RKI 272/16) greater than 64 µg/mL and an MIC ([7]; Table S1, RKI 377/15) of 8 µg/mL (≈ 20.9 µM). It also gave an MIC ([7]; Table S1, RKI 523/16) of 32 µg/mL (≈ 83.4 µM), an MIC ([7]; Table S1, RKI 584/16) of no more than 0.5 µg/mL and an MIC ([7]; Table S1, RKI 596/16) greater than 64 µg/mL. It also gave an MIC ([8]; Klebsiella pneumoniae, Table S1, RKI 600/16, read-out: MIC) of no more than 0.5 µg/mL, an MIC ([8]; Table S1, RKI 19/16) of no more than 0.5 µg/mL and an MIC ([8]; Table S1, RKI 80/15) of no more than 0.5 µg/mL. The MIC ([8]; Table S1, RKI 94/15) was no more than 0.5 µg/mL, the MIC ([8]; Table S1, RKI 95/16) was no more than 0.5 µg/mL and the MIC ([8]; Table S1, RKI 107/15) was 1 µg/mL (≈ 2.61 µM). For the same compound, the MIC ([8]; Table S1, RKI 138/16) was no more than 0.5 µg/mL, the MIC ([8]; Table S1, RKI 164/16) was greater than 64 µg/mL and the MIC ([8]; Table S1, RKI 229/15) was 16 µg/mL (≈ 41.7 µM). For the same compound, the MIC ([8]; Table S1, RKI 320/16) was no more than 0.5 µg/mL, the MIC ([8]; Table S1, RKI 328/16) was 64 µg/mL (≈ 167 µM) and the MIC ([8]; Table S1, RKI 373/16-1) was no more than 0.5 µg/mL. It also gave an MIC ([8]; Table S1, RKI 393/16) of no more than 0.5 µg/mL, an MIC ([8]; Table S1, RKI 461/16) of no more than 0.5 µg/mL and an MIC ([8]; Table S1, RKI 503/15) of 32 µg/mL (≈ 83.4 µM). The MIC ([8]; Table S1, RKI 544/13) was greater than 64 µg/mL, the MIC ([8]; Table S1, RKI 577/15) was no more than 0.5 µg/mL and the MIC ([8]; Table S1, RKI 908/15) was 32 µg/mL (≈ 83.4 µM). The MIC [9] was 16 µg/mL (≈ 41.7 µM) and the MIC [10] was 16 µg/mL (≈ 41.7 µM).
